# PubChem BioAssay (NCI)
# “And” between values parts separate entries of the source, which are not always exact repeats. Equal entries are not always repeated.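 Following 48 hours of exposure in 96-well plates, responses at five concentrations were used to interpolate endpoints linearly. Here, GI50 denotes the concentration required for 50% inhibition of growth. Definition used: TGI = concentration required for complete inhibition of growth.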
# Key:
# Experiment in all cases: DTP human tumour cell line panel, 48 h
# [1] = test system: MDA-N
# [2] = test system: BT-549 breast
# [3] = test system: MDA-MB-435
# [4] = test system: LXFL 529 NSCLC
# [5] = test system: M19-MEL melanoma
# [6] = test system: RXF-631 renal
# [7] = test system: SNB-78 CNS
# [8] = test system: KM20L2 colon
# [9] = test system: XF 498 CNS
SMILES,TGI [2] [µM],TGI [3],GI50 [2] [µM],TGI [4] [µM],TGI [5] [µM],TGI [8] [µM],also measured
O=S(=O)(/C=C/C=C/S(=O)(=O)c1ccccc1)c1ccccc1,3.15,4.21 µM and 4.19 µM,,,,,GI50 [1]: 1.4 µM; TGI [1]: 2.88 µM and 7.28 µM; GI50 [3]: 1.04 µM
CC(C)(Cl)CCC1=C(Cl)C(=O)c2ccccc2C1=O,8.78,4.62 µM,2.35,,,,GI50 [3]: 2.15 µM
CCCCCCCC[N+](C)(C)Cc1ccc(C[N+](C)(C)CCCCCCCC)cc1,,,,> 100,> 100,> 100,TGI [6]: > 100 µM; TGI [7]: > 100 µM
C=C(C)C1CC=C(C(=O)O)CC1 (centres undefined),,,,> 5000,2970,> 5000,TGI [6]: 1620 µM
C/C(=C\c1ccn(-c2ccc(N)c(C(F)(F)F)c2)n1)[C@@H]1C[C@@H]2O[C@]2(C)CCC[C@H](C)[C@H](O)[C@@H](C)C(=O)C(C)(C)[C@@H](O)CC(=O)O1,31.5,,0.0221,,,,
O=C1C2CC3C(CC2C(=O)[N]1[Sn]([c]1ccccc1)([c]1ccccc1)[c]1ccccc1)C1(Cl)C(Cl)=C(Cl)C3(Cl)C1(Cl)Cl (centres undefined),0.369,0.257 µM,0.185,,,,GI50 [3]: 0.0872 µM
CC(=O)O[C@H](C[C@H](C(C)C)N(C)C(=O)[C@@H](NC(=O)[C@H]1CCCCN1C)C(C)C)c1nc(C(=O)N[C@@H](Cc2ccccc2)C[C@H](C)C(=O)O)c(C)s1,0.0627,,< 0.0025,,,,
N=c1nc(N)c2cc3c(N)nc(=N)c3cc12,51,> 100 µM,,> 100,5.45,> 100,TGI [1]: 4.71 µM; TGI [6]: 53.5 µM; TGI [7]: 48.5 µM
CC(=O)[CH-]C(=O)c1ccccc1.CC(=O)[CH-]C(=O)c1ccccc1.O=C([O-])C[O-].O=C([O-])C[O-].[Ti+4],,,,> 100,> 100,> 100,GI50 [4]: 33.5 µM; GI50 [8]: 43.8 µM
O=C(O)/C(Cl)=C(\Cl)Nc1cccc(C(F)(F)F)c1,,,,> 100,> 100,> 100,TGI [9]: > 100 µM; TGI [7]: > 100 µM
COc1cccc(-c2nn(-c3ccccc3)cc2-c2ccnc(NCCNS(=O)(=O)c3ccc(C(F)(F)F)cc3)c2)c1,4.56,17.5 µM,1.95,,,,GI50 [3]: 3.23 µM
O=C1C(=O)c2cc([N+](=O)[O-])ccc2-c2ccccc21,3.22,1.53 µM,1.83,,,,GI50 [3]: 0.402 µM
CCCCCCCCCCCCCOC(=O)c1c(C)[nH]c(/C=C2\N=C(c3ccc[nH]3)C=C2OC)c1C,36.7,> 100 µM,0.237,,,,GI50 [3]: 0.0411 µM
Nc1nc(N)c2nc(CNc3ccc(C(=O)CC(CCC(=O)O)C(=O)O)cc3)cnc2n1 (centres undefined),,> 100 µM,0.357,,,,GI50 [3]: 0.137 µM
O=C(O)C1C2C=CC(O2)C1C(=O)Nc1ccccc1 (centres undefined),> 100,> 100 µM,,,,,TGI [1]: > 100 µM
CC1(C)CCC(=O)c2c(O)ccc(O)c21,,,,> 100,> 100,> 100,TGI [7]: > 100 µM
COc1ccc2cc(C(=O)c3ccccc3C(=O)O)ccc2c1,,,,> 100,> 100,> 100,

SMILES,TGI [2] [µM],TGI [3],GI50 [2] [µM],TGI [4] [µM],TGI [5] [µM],TGI [8] [µM],also measured
CC1=CC2=C(OCO1)C(=O)c1ccccc1C2=O,,2.77 µM,,52.8,3.58,46.6,TGI [1]: 1.48 µM; TGI [7]: > 100 µM
c1cncc(C2c3[nH]c4ccccc4c3CCN2CCCN2CCCCC2)c1 (centres undefined),,,,> 100,> 100,> 100,TGI [9]: > 100 µM; TGI [7]: > 100 µM
CCOC(=O)C12CCCC1(O)N(NC(=O)c1cccc(Cl)c1)C(C)=C2C(=O)OC (centres undefined),,,,> 100,> 100,> 100,TGI [9]: > 100 µM; TGI [6]: > 100 µM
OCCN1CCN(CCO)Cc2ccccc2OCCOc2ccccc2C1,,,,> 100,> 100,> 100,TGI [6]: > 100 µM; TGI [7]: > 100 µM
C=C1C(=O)O[C@@H]2[C@H]1CC[C@H](C)[C@]1(O)CCC(=O)[C@@]21C,,> 10 µM,,,,,TGI [1]: > 10 µM
CCOC(=O)/C(=C/c1ccc(OC)c(OC)c1)C(=O)c1ccccc1,,,,25.3,44.1,38.7,TGI [9]: 29.9 µM; TGI [7]: 56.3 µM
CCN1C(=O)N(CC)C2C1NN=c1s/c(=C3\C(=O)N(CCC(C)C)c4ccccc43)c(=O)n12 (centres undefined),6.33,1.14 µM,1.96,,,,GI50 [3]: 0.308 µM
CC1(C)SC2C(C(=O)O)N=C(Cc3ccccc3)N2C1C(=O)O (centres undefined),> 100,> 100 µM,,,,,TGI [1]: > 100 µM
COC(=O)C1=CC(O)CCC1c1ccc(OC)cc1 (centres undefined),,,,> 100,> 100,> 100,TGI [7]: > 100 µM
O=c1ncc(-c2ccc(C(F)(F)F)cc2)c(NC2CCCCCC2)[nH]1,39,34.4 µM,19.5,,,,GI50 [3]: 15.6 µM
Cc1ccc(-c2csc(N(C(=O)N3CCN(c4cc5c(cc4F)c(=O)c(C(=O)O)cn5C4CC4)CC3)c3ccccc3)n2)cc1,3.31,,0.32,,,,
Cc1cc(C)c(C(=O)O)c(N)c1O,,,,> 100,> 100,> 100,
CSc1nc(NC2OCC(OC(C)=O)C(OC(C)=O)C2OC(C)=O)c(N=CC=Nc2c(NC3OCC(OC(C)=O)C(OC(C)=O)C3OC(C)=O)nc(SC)n(C)c2=O)c(=O)n1C (centres undefined),,,,> 100,> 100,> 100,
COc1ccc2[nH]c3c4c(c5cc(C(C)(C)C)ccc5c3c2c1)C(=O)N(c1ccccc1)C4=O,,,,> 100,> 100,> 100,TGI [7]: > 100 µM
Cc1cc(Cl)ccc1Nc1sc(C(=O)c2cc3cc(Cl)ccc3o2)c(N)c1C#N,> 100,> 100 µM,,,,,TGI [1]: > 100 µM
CN1CCN(C(=O)c2ccc(NC(=O)Nc3ccc(N(C)c4ccnc(Nc5ccc(CS(C)(=O)=O)cc5)n4)cc3)cc2)CC1,> 25,> 25 µM,9.05,,,,GI50 [3]: > 25 µM
Cc1cc(N(CCOS(C)(=O)=O)CCOS(C)(=O)=O)ccc1C=Nc1ccc(-c2csc(-c3ccccc3)n2)c(Cl)c1,73.6,38 µM,,,,,TGI [1]: 23.1 µM
